# Assay results published in patent US20150344457A1, “METHODS OF INHIBITING PRMT5” (EPIZYME, INC., priority 2012, published 2015).
# Biological target: T1, PRMT5/MEP50 (Homo sapiens, UniProt O14744)
# T1 construct: Expressed full-length human Flag-PRMT5/6His-MeP50 protein complex was purified; made in house; host or cells: Spodoptera frugiperda (SF9) insect cells, baculovirus (pDEST8)
# Assay: PRMT5 Biochemical Assay (PRMT5/MEP50 enzyme assay on peptide substrate, 3H-SAM Flashplate)
# Conditions: Table A-2; PRMT5/MEP50 4 nM, 3H-SAM 75 nM, peptide 40 nM; read-out: Biochemical IC50
# Text: S-adenosylmethionine (SAM), S-adenosylhomocysteine (SAH), bicine, KCl, Tween20, dimethylsulfoxide (DMSO), bovine skin gelatin (BSG), and Tris(2-carboxyethyl)phosphine hydrochloride solution (TCEP) were purchased from Sigma-Aldrich at the highest level of purity possible. ^3H-SAM was purchase from American Radiolabeled Chemicals with a specific activity of 80 Ci/mmol 384-well streptavidin Flashplates were purchased from PerkinElmer.
# Peptide representative of human histone H4 residues 1-15 was synthesized with a C-terminal linker-affinity tag motif and a C-terminal amide cap by 21st Century Biochemicals. […] The sequence was Ac-[…][K-Biot]-amide (SEQ ID NO.:3).
# Full-length human MEP50 (NM_024102) clone was amplified from a human testis cDNA library incorporating a 5′ sequence encoding a 6-histidine tag (MHHHHHH) (SEQ ID NO.:5) fused directly to Arg 2 of MEP50. The amplified genes were sublconed into pENTR/D/TEV (Life Technologies) and subsequently transferred by Gateway™ attL×attR recombination to pDEST8 baculvirus expression vector (Life Technologies).
# Recombinant baculovirus and Baculovirus-Infected Insect Cells (BIIC) were generated according to Bac-to-Bac kit instructions (Life Technologies) and Wasilko, 2006, respectively. Protein over-expression was accomplished by infecting exponentially growing Spodoptera frugiperda (SF9) cell culture at 1.2×10^6 cell/ml with a 5000 fold dilution of BIIC stock. Infections were carried out at 27° C. for 72 hours, harvested by centrifugation, and stored at −80° C. for purification.
# Flag-PRMT5/6His-MeP50 was eluted with 300 mM Imidazole in the same buffer. […] Reference: Wasilko, D. J. and S. E. Lee: “TIPS: titerless infected-cells preservation and scale-up” Bioprocess J., 5 (2006), pp. 29-32.
# General Procedure for PRMT5/MEP50 Enzyme Assays on Peptide Substrates.
# The assays were all performed in a buffer consisting of 20 mM Bicine (pH=7.6), 1 mM TCEP, 0.005% BSG, and 0.002% Tween20, prepared on the day of use. Compounds in 100% DMSO (1 ul) were spotted into a polypropylene 384-well V-bottom plates (Greiner) using a Platemate Plus outfitted with a 384-channel head (Thermo Scientific). DMSO (1 ul) was added to Columns 11, 12, 23, 24, rows A-H for the maximum signal control and 1 ul of SAH, a known product and inhibitor of PRMT5/MEP50, was added to columns 11, 12, 23, 24, rows I-P for the minimum signal control. A cocktail (40 ul) containing the PRMT5/MEP50 enzyme and the peptide was added by Multidrop Combi (Thermo-Fisher). The compounds were allowed to incubate with PRMT5/MEP50 for 30 min at 25 degrees Celsius, then a cocktail (10 ul) containing ^3H-SAM was added to initiate the reaction (final volume=51 ul). The final concentrations of the components were as follows: PRMT5/MEP50 was 4 nM, ^3H-SAM was 75 nM, peptide was 40 nM, SAH in the minimum signal control wells was 100 uM, and the DMSO concentration was 1%. The assays were stopped by the addition of non-radioactive SAM (10 ul) to a final concentration of 600 uM, which dilutes the ^3H-SAM to a level where its incorporation into the peptide substrate is no longer detectable. 50 ul of the reaction in the 384-well polypropylene plate was then transferred to a 384-well Flashplate and the biotinylated peptides were allowed to bind to the streptavidin surface for at least 1 hour before being washed three times with 0.1% Tween20 in a Biotek ELx405 plate washer. The plates were then read in a PerkinElmer TopCount plate reader to measure the quantity of ^3H-labeled peptide bound to the Flashplate surface, measured as disintegrations per minute (dpm) or alternatively, referred to as counts per minute (cpm).
# where dpm=disintegrations per minute, cmpd=signal in assay well, and min and max are the respective minimum and maximum signal controls.
# where top and bottom are the normally allowed to float, but may be fixed at 100 or 0 respectively in a 3-parameter fit.
# T1 sequence (O14744 with tags, fused parts or gaps): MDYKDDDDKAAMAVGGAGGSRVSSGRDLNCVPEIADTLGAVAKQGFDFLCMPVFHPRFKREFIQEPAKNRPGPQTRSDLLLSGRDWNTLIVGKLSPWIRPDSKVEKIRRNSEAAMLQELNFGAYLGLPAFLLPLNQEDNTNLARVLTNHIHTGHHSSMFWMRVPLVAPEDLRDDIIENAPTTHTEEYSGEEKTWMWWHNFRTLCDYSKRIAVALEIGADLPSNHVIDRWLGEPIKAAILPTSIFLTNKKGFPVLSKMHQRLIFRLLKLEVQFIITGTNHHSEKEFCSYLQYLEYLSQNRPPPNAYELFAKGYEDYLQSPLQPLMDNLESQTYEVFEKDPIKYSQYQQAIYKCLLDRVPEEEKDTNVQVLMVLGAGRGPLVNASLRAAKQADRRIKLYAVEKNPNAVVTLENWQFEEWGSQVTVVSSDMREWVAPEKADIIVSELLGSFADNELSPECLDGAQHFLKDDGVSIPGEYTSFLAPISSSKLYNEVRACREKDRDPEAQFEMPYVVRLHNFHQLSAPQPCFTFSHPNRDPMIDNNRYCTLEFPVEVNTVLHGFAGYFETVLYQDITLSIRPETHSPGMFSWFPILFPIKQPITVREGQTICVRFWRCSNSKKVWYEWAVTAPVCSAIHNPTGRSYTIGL
# T1 sequence (Q9BQA1 with tags, fused parts or gaps partner limits assumed): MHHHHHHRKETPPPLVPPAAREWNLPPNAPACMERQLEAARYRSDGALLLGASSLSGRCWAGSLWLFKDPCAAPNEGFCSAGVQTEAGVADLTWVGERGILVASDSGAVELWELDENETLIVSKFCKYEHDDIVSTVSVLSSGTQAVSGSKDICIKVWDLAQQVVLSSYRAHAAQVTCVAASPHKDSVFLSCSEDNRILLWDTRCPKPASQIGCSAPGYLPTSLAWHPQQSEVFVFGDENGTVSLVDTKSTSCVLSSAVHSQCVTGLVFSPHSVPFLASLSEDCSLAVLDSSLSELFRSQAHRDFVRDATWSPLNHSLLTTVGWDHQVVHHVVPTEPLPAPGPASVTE
row,SMILES,IC50 [nM]
1,O=C(CCc1ccccc1)NCC(O)CN1CCc2ccccc2C1 (stereo not shown) [Compound A2],1000 to 10000
2,CN(CC(O)CN1CCc2ccccc2C1)C(=O)CCc1ccccc1 (stereo not shown) [Compound A3],1000 to 10000
3,O=C(COc1cccc2c1CCCN2Cc1ccccc1)NCC(O)CN1CCc2ccccc2C1 (stereo not shown) [Compound A4],< 100
4,CN(CC(O)CN1CCc2ccccc2C1)C(=O)COc1ccccc1 (stereo not shown) [Compound A5],10000 to 50000
5,O=C(COc1ccc(F)cc1)NCC(O)CN1CCc2ccccc2C1 (stereo not shown) [Compound A10],1000 to 10000
6,NC(=O)c1ccc(OCC(=O)NCC(O)CN2CCc3ccccc3C2)cc1 (stereo not shown) [Compound A13],1000 to 10000
7,CS(=O)(=O)c1ccc(OCC(=O)NCC(O)CN2CCc3ccccc3C2)cc1 (stereo not shown) [Compound A14],1000 to 10000
8,O=C(COC1CCCCC1)NCC(O)CN1CCc2ccccc2C1 (stereo not shown) [Compound A24],101 to 1000
9,CC(C)(Oc1ccccc1)C(=O)NCC(O)CN1CCc2ccccc2C1 (stereo not shown) [Compound A25],101 to 1000
10,O=C(COc1ccccc1)NC[C@@H](O)CN1CCc2ccccc2C1 [Compound A33],1000 to 10000
11,O=C(COC1CCOCC1)NCC(O)CN1CCc2ccccc2C1 (stereo not shown) [Compound A41],1000 to 10000
12,O=C(Cc1ccncc1)NCC(O)CN1CCc2ccccc2C1 (stereo not shown) [Compound A51],10000 to 50000
13,NS(=O)(=O)c1ccc(OCC(=O)NCC(O)CN2CCc3ccccc3C2)cc1 (stereo not shown) [Compound A52],1000 to 10000
14,O=C(Cc1ccccc1)NC[C@H](O)CN1CCc2ccccc2C1 [Compound A55],101 to 1000
15,O=C(CC1CCCCC1)NC[C@H](O)CN1CCc2ccccc2C1 [Compound A56],1000 to 10000
16,O=C(Cc1ccccc1)NC[C@@H](O)CN1CCc2ccccc2C1 [Compound A57],10000 to 50000
17,O=C(CC1CCCCC1)NC[C@@H](O)CN1CCc2ccccc2C1 [Compound A58],10000 to 50000
18,C[C@H](Oc1cccc2cccnc12)C(=O)NC[C@@H](O)CN1CCc2ccccc2C1 [Compound A72],1000 to 10000
19,O=C(COc1ccccc1OCCN1CCOCC1)NC[C@@H](O)CN1CCc2ccccc2C1 [Compound A87],1000 to 10000
20,O=C(COc1ccccc1-c1c[nH]cn1)NCC(O)CN1CCc2ccccc2C1 (stereo not shown) [Compound A115],10000 to 50000

row,SMILES,IC50 [nM]
1,O=C(COc1cccc(NC2CCOCC2)n1)NCC(O)CN1CCc2ccccc2C1 (stereo not shown) [Compound A121],1000 to 10000
2,O=C(COc1cccc2[nH]c(=O)cnc12)NCC(O)CN1CCc2ccccc2C1 (stereo not shown) [Compound A125],1000 to 10000
3,CC(Oc1ccccc1S(N)(=O)=O)C(=O)NCC(O)CN1CCc2ccccc2C1 (stereo not shown) [Compound A126],> 50000
4,CC(=O)Nc1cccnc1OCC(=O)NCC(O)CN1CCc2ccccc2C1 (stereo not shown) [Compound A128],> 50000
5,NS(=O)(=O)c1cccc(OCC(=O)NCC(O)CN2CCc3ccccc3C2)c1 (stereo not shown) [Compound A131],1000 to 10000
6,O=C(COc1ccccc1C1CNC1)NCC(O)CN1CCc2ccccc2C1 (stereo not shown) [Compound A132],1000 to 10000
7,CN(C)c1cccnc1OCC(=O)NCC(O)CN1CCc2ccccc2C1 (stereo not shown) [Compound A133],> 10000
8,CN1CC(c2ccccc2OCC(=O)NCC(O)CN2CCc3ccccc3C2)C1 (stereo not shown) [Compound A135],1000 to 10000
9,CN1CCC(c2ccccc2OCC(=O)NCC(O)CN2CCc3ccccc3C2)C1 (stereo not shown) [Compound A136],1000 to 10000
10,CS(=O)(=O)Nc1ncccc1OCC(=O)NCC(O)CN1CCc2ccccc2C1 (stereo not shown) [Compound A139],> 10000
11,CS(=O)(=O)Nc1cccnc1OCC(=O)NCC(O)CN1CCc2ccccc2C1 (stereo not shown) [Compound A140],1000 to 10000
12,CC(C)(C)OC(=O)Nc1ccccc1OCC(=O)NCC(O)CN1CCc2ccccc2C1 (stereo not shown) [Compound A141],1000 to 10000
13,CN(C)c1cncc(OCC(=O)NCC(O)CN2CCc3ccccc3C2)c1 (stereo not shown) [Compound A143],1000 to 10000
14,O=C(COc1cccc2cccnc12)NCC(O)CN1Cc2ccccc2C(F)(F)C1 (stereo not shown) [Compound A144],> 10000
15,Nc1ncccc1OCC(=O)NCC(O)CN1CCc2ccccc2C1 (stereo not shown) [Compound A145],1000 to 10000
16,CC(=O)Nc1ncccc1OCC(=O)NCC(O)CN1CCc2ccccc2C1 (stereo not shown) [Compound A147],> 10000
17,CC(=O)Nc1cncc(OCC(=O)NCC(O)CN2CCc3ccccc3C2)c1 (stereo not shown) [Compound A148],> 10000
18,O=C(COc1cccc2c1CCCN2)NCC(O)CN1CCc2ccccc2C1 (stereo not shown) [Compound A150],101 to 1000
19,CN1CCCc2c(OCC(=O)NCC(O)CN3CCc4ccccc4C3)cccc21 (stereo not shown) [Compound A151],101 to 1000
20,O=C(COCc1cccnc1)NCC(O)CN1CCc2ccccc2C1 (stereo not shown) [Compound A152],1000 to 10000

# Same assay, conditions: Table B-2; PRMT5/MEP50 4 nM, 3H-SAM 75 nM, peptide 40 nM; read-out: Biochemical IC50
row,SMILES,IC50 [nM]
1,O=C(NCC(O)CN1CCc2ccccc2C1)c1cccc(-c2ccccn2)c1 (stereo not shown) [Compound B1.],< 100
2,Cn1nccc1-c1cccc(C(=O)NCC(O)CN2CCc3ccccc3C2)c1 (stereo not shown) [Compound B2.],< 100
3,O=C(NC[C@H](O)CN1CCc2ccccc2C1)c1ccccc1 [Compound B3.],< 100
4,O=C(NCC(O)CN1CCc2ccccc2C1)c1cccc(-c2cccnc2)c1 (stereo not shown) [Compound B8.],< 100
5,O=C(NCC(O)CN1CCc2ccccc2C1)c1cccc(-c2ccncc2)c1 (stereo not shown) [Compound B9.],< 100
6,O=C(NCC(O)CN1CCc2ccccc2C1)c1cccc(-c2cc[nH]n2)c1 (stereo not shown) [Compound B10.],< 100
7,O=C(NC[C@@H](O)CN1CCc2ccccc2C1)Oc1ccccc1 [Compound B11.],< 100
8,O=C(NCC(O)CN1CCc2ccccc2C1)c1ccccc1-c1ccccn1 (stereo not shown) [Compound B12.],101 to 1000
9,O=C(NCC(O)CN1CCc2ccccc2C1)c1ccc(-c2ccccn2)cc1 (stereo not shown) [Compound B13.],< 100
10,O=C(NCC(O)CN1CCc2ccccc2C1)c1cccc(N2CCOCC2)c1 (stereo not shown) [Compound B14.],< 100
11,O=C(NCC(O)CN1CCc2ccccc2C1)c1cccc(CNC2CCOCC2)c1 (stereo not shown) [Compound B15.],< 100
12,O=C(NCC(O)CN1CCc2ccccc2C1)c1cccc(NC2CCOCC2)c1 (stereo not shown) [Compound B16.],< 100
13,O=C(NCC(O)CN1CCc2ccccc2C1)c1ccccn1 (stereo not shown) [Compound B17.],101 to 1000
14,O=C(NCC(O)CN1CCc2ccccc2C1)c1cccnc1 (stereo not shown) [Compound B18.],101 to 1000
15,O=C(NC[C@@H](O)CN1CCc2ccccc2C1)c1cccc(-c2ccccn2)c1 [Compound B19.],< 100
16,O=C(NC[C@H](O)CN1CCc2ccccc2C1)c1cccc(-c2ccccn2)c1 [Compound B20.],< 100
17,NS(=O)(=O)c1ccc(C(=O)NCC(O)CN2CCc3ccccc3C2)cc1 (stereo not shown) [Compound B21.],101 to 1000
18,NC(=O)c1ccc(C(=O)NCC(O)CN2CCc3ccccc3C2)cc1 (stereo not shown) [Compound B22.],101 to 1000
19,CC(=O)Nc1ccc(C(=O)NCC(O)CN2CCc3ccccc3C2)cc1 (stereo not shown) [Compound B23.],101 to 1000
20,CS(=O)(=O)Nc1cccc(C(=O)NCC(O)CN2CCc3ccccc3C2)c1 (stereo not shown) [Compound B24.],< 100
21,NC(=O)c1cccc(C(=O)NCC(O)CN2CCc3ccccc3C2)c1 (stereo not shown) [Compound B25.],101 to 1000
22,CC(=O)Nc1cccc(C(=O)NCC(O)CN2CCc3ccccc3C2)c1 (stereo not shown) [Compound B26.],101 to 1000
23,CS(=O)(=O)Nc1ccccc1C(=O)NCC(O)CN1CCc2ccccc2C1 (stereo not shown) [Compound B27.],1000 to 10000
24,CN(C)CCOc1cccc(C(=O)NCC(O)CN2CCc3ccccc3C2)c1 (stereo not shown) [Compound B28.],< 100
